Measured values published in PMC3961306, “Comparison of the Cancer Gene Targeting and Biochemical Selectivities of All Targeted Kinase Inhibitors Approved for Clinical Use” (PLoS ONE, 2014).
pIC50: −log10 of the molar value. Where two headings read alike, the source gives them in different places.

Legend:
[1] = system: forty-four human cancer cell lines; assay: Cell proliferation assay (ATPlite, 72 hours) in the 44 cell line Oncolines panel; format: cell-based; settings: Homo sapiens
[2] = molecular target: panel of more than 300 wild-type and mutant kinases (313 kinase panel) (Homo sapiens, UniProt P09619); assay: Kinase profiling in a biochemical assay panel (mobility shift assays and ELISA), %-inhibition at 1 μM; selectivity entropy; settings: kinase PDGFRβ; 1 μM
[3] = molecular target: panel of more than 300 wild-type and mutant kinases (313 kinase panel) (Homo sapiens, UniProt P11362, V561M); assay: as above; settings: kinase FGFR1(V561M); compound at 1 μM
[4] = molecular target: panel of more than 300 wild-type and mutant kinases (313 kinase panel) (Homo sapiens, UniProt P19525); assay: as above; settings: kinase PKR; 1 μM
[5] = molecular target: panel of more than 300 wild-type and mutant kinases (313 kinase panel) (Homo sapiens, UniProt P22612); assay: as above; settings: kinase PKACγ; 1 μM
[6] = molecular target: panel of more than 300 wild-type and mutant kinases (313 kinase panel) (Homo sapiens, UniProt Q00535); assay: as above; settings: kinase CDK5/p25; 1 μM compound
[7] = molecular target: T1, panel of more than 300 wild-type and mutant kinases (313 kinase panel) (Homo sapiens, UniProt Q16832); assay: as above; settings: kinase DDR2; compound at 1 μM
T1 sequence (Q16832 22-855): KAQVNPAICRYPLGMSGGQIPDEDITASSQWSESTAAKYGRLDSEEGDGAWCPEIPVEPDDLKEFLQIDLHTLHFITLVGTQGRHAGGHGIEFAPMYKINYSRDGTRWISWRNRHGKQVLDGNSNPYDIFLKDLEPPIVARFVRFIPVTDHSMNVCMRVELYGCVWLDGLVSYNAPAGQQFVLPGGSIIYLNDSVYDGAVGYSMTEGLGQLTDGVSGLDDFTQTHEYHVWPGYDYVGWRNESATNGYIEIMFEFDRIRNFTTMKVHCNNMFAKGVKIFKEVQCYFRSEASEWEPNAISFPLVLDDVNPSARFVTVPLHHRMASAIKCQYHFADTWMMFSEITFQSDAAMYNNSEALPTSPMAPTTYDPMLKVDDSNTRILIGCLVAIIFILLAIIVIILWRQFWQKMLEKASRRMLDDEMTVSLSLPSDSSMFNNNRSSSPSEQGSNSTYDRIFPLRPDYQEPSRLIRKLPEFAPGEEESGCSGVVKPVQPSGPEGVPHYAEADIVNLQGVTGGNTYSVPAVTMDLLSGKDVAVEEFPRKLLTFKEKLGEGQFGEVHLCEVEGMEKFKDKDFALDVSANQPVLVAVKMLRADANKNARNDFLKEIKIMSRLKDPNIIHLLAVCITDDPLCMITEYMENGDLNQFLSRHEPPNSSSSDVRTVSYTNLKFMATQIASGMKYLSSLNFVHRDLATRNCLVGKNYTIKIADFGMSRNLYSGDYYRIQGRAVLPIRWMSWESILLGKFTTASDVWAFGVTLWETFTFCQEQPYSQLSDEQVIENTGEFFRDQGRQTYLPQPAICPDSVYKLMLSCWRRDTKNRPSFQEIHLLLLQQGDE

[8] = molecular target: panel of more than 300 wild-type and mutant kinases (313 kinase panel) (Homo sapiens, UniProt O95819); assay: as above; settings: kinase HGK; compound at 1 μM
[9] = molecular target: panel of more than 300 wild-type and mutant kinases (313 kinase panel) (Homo sapiens, UniProt Q9UM73, R1275Q); assay: as above; settings: kinase ALK(R1275Q); 1 μM compound
[10] = 4-4 cell, read-out: cell panel IC50, J82
[11] = 4-4 cell, read-out: cell panel IC50, PA-1
[12] = 4-4 cell, read-out: cell panel IC50, SJCRH30
[13] = 4-4 cell, read-out: cell panel IC50, SR
[14] = 769-P, read-out: cell panel IC50, 769-P
[15] = 786-0, read-out: cell panel IC50, 786-0
[16] = A 172, read-out: cell panel IC50, A-172
[17] = A204, read-out: cell panel IC50, A-204
[18] = A498, read-out: cell panel IC50, A-498
[19] = A549, read-out: cell panel IC50, A-549
[20] = A-375, read-out: cell panel IC50, A375
[21] = A-427, read-out: cell panel IC50, A-427
[22] = ACHN, read-out: cell panel IC50, ACHN
[23] = AN3-CA, read-out: cell panel IC50, AN3 CA
[24] = AU565, read-out: cell panel IC50, AU-565
[25] = BT-20, read-out: cell panel IC50, BT-20
[26] = BT-549, read-out: cell panel IC50, BT-549
[27] = BXPC-3, read-out: cell panel IC50, BxPC-3
[28] = C-33-A, read-out: cell panel IC50, C-33 A
[29] = CAL-27, read-out: cell panel IC50, CAL 27
[30] = CCRF-CEM, read-out: cell panel IC50, CCRF-CEM
[31] = DLD-1, read-out: cell panel IC50, DLD-1
[32] = FaDu, read-out: cell panel IC50, FaDu
[33] = HCT-15, read-out: cell panel IC50, HCT-15
[34] = HCT-116, read-out: cell panel IC50, HCT-116
[35] = Hs-578T, read-out: cell panel IC50, Hs 578T
[36] = Jurkat E6.1, read-out: cell panel IC50, Jurkat E6.1
[37] = K562, read-out: cell panel IC50, K-562
[38] = LS174T, read-out: cell panel IC50, LS 174T
[39] = LoVo, read-out: cell panel IC50, LoVo
[40] = MG-63, read-out: cell panel IC50, MG-63
[41] = MOLT-4, read-out: cell panel IC50, MOLT-4
[42] = NCI-H82, read-out: cell panel IC50, NCI-H82
[43] = NCI-H460, read-out: cell panel IC50, NCI-H460
[44] = OVCAR-3, read-out: cell panel IC50, OVCAR-3
[45] = RPMI-7951, read-out: cell panel IC50, RPMI-7951
[46] = SHP77, read-out: cell panel IC50, SHP-77
[47] = SK-N-AS, read-out: cell panel IC50, SK-N-AS
[48] = SW48, read-out: cell panel IC50, SW48
[49] = SW480, read-out: cell panel IC50, SW480
[50] = SW-620, read-out: cell panel IC50, SW620
[51] = U2OS, read-out: cell panel IC50, U-2 OS
[52] = U-87 MG, 72 h, read-out: IC50 in cell proliferation assay (table S5 cellpanel data)

Q: `C[C@@H](Oc1cc(-c2cnn(C3CCNCC3)c2)cnc1N)c1c(Cl)ccc(F)c1Cl` [crizotinib] was tested. Which pIC50 [1, 10] did it give?
A: The pIC50 was 5.28.

Q: What about the pIC50 [1, 11] of the same compound?
A: Its pIC50 is 6.05.

Q: What about the pIC50 [1, 12] of the same compound?
A: The pIC50 was 5.96.

Q: And the pIC50 [1, 13]?
A: Its pIC50 is 7.36.

Q: What about the pIC50 [1, 14] of the same compound?
A: The pIC50 was 5.53.

Q: And the pIC50 [1, 15]?
A: The pIC50 was 5.41.

Q: What about the pIC50 [1, 16] of the same compound?
A: The pIC50 was 5.77.

Q: And the pIC50 [1, 17]?
A: Its pIC50 is 5.61.

Q: What about the pIC50 [1, 18] of the same compound?
A: Its pIC50 is 5.65.

Q: And the pIC50 [1, 19]?
A: Its pIC50 is 5.93.

Q: And the pIC50 [1, 20]?
A: Its pIC50 is 5.97.

Q: What about the pIC50 [1, 21] of the same compound?
A: Its pIC50 is 6.17.

Q: And the pIC50 [1, 22]?
A: Its pIC50 is 5.65.

Q: What about the pIC50 [1, 23] of the same compound?
A: The pIC50 was 5.77.

Q: What about the pIC50 [1, 24] of the same compound?
A: The pIC50 was 5.11.

Q: What about the pIC50 [1, 25] of the same compound?
A: The pIC50 was 4.89.

Q: What about the pIC50 [1, 26] of the same compound?
A: Its pIC50 is 5.31.

Q: And the pIC50 [1, 27]?
A: The pIC50 was 5.86.

Q: What about the pIC50 [1, 28] of the same compound?
A: The pIC50 was 5.52.

Q: And the pIC50 [1, 29]?
A: The pIC50 was 5.74.

Q: What about the pIC50 [1, 30] of the same compound?
A: Its pIC50 is 6.25.

Q: What about the pIC50 [1, 31] of the same compound?
A: Its pIC50 is 5.52.

Q: And the pIC50 [1, 32]?
A: The pIC50 was 5.27.

Q: What about the pIC50 [1, 33] of the same compound?
A: The pIC50 was 5.32.

Q: And the pIC50 [1, 34]?
A: Its pIC50 is 5.77.

Q: What about the pIC50 [1, 35] of the same compound?
A: Its pIC50 is 5.56.

Q: And the pIC50 [1, 36]?
A: The pIC50 was 5.95.

Q: And the pIC50 [1, 37]?
A: The pIC50 was 6.60.

Q: What about the pIC50 [1, 38] of the same compound?
A: The pIC50 was 6.07.

Q: What about the pIC50 [1, 39] of the same compound?
A: Its pIC50 is 6.18.

Q: What about the pIC50 [1, 40] of the same compound?
A: The pIC50 was 5.76.

Q: And the pIC50 [1, 41]?
A: Its pIC50 is 6.46.

Q: What about the pIC50 [1, 42] of the same compound?
A: The pIC50 was 6.07.

Q: What about the pIC50 [1, 43] of the same compound?
A: Its pIC50 is 5.94.

Q: And the pIC50 [1, 44]?
A: The pIC50 was 5.34.

Q: What about the pIC50 [1, 45] of the same compound?
A: The pIC50 was 5.82.

Q: What about the pIC50 [1, 46] of the same compound?
A: The pIC50 was 5.51.

Q: And the pIC50 [1, 47]?
A: Its pIC50 is 5.88.

Q: What about the pIC50 [1, 48] of the same compound?
A: The pIC50 was 5.71.

Q: What about the pIC50 [1, 49] of the same compound?
A: The pIC50 was 5.44.

Q: And the pIC50 [1, 50]?
A: The pIC50 was 5.88.

Q: And the pIC50 [1, 51]?
A: Its pIC50 is 5.70.

Q: What about the pIC50 [1, 52] of the same compound?
A: Its pIC50 is 5.41.

Q: What about the “%-inhibition of PDGFRβ” value [2] of the same compound?
A: The value was 18%.

Q: What about the “%-inhibition of FGFR1(V561M)” value [3] of the same compound?
A: The value was 26%.

Q: What about the “%-inhibition of PKR” value [4] of the same compound?
A: The value was 6%.

Q: What about the “%-inhibition of PKACγ” value [5] of the same compound?
A: Its value is -6.52%.

Q: What about the “%-inhibition, CDK5/p25” value [6] of the same compound?
A: The value was -8%.

Q: What about the “%-inhibition of DDR2” value [7] of the same compound?
A: The value was 88%.

Q: What does the source list for `COc1cc(Nc2c(C#N)cnc3cc(OCCCN4CCN(C)CC4)c(OC)cc23)c(Cl)cc1Cl` [bosutinib]?
A: pIC50 [1, 10]: 5.35; pIC50 [1, 11]: 5.90; pIC50 [1, 12]: 5.36; pIC50 [1, 13]: 6.01; pIC50 [1, 14]: 5.91; pIC50 [1, 15]: 5.66; pIC50 [1, 16]: 5.43; pIC50 [1, 17]: 5.25; pIC50 [1, 18]: 5.82; pIC50 [1, 19]: 5.62; pIC50 [1, 20]: 5.70; pIC50 [1, 21]: 5.63; pIC50 [1, 22]: 6.09; pIC50 [1, 23]: 5.10; pIC50 [1, 24]: 5.39; pIC50 [1, 25]: 5.05; pIC50 [1, 26]: 5.31; pIC50 [1, 27]: 5.56; pIC50 [1, 28]: 6.97; pIC50 [1, 29]: 5.77; pIC50 [1, 30]: 5.45; pIC50 [1, 31]: 5.65; pIC50 [1, 32]: 5.71; pIC50 [1, 33]: 5.69; pIC50 [1, 34]: 5.54; pIC50 [1, 35]: 5.44; pIC50 [1, 36]: 6.33; pIC50 [1, 37]: 7.85; pIC50 [1, 38]: 5.93; pIC50 [1, 39]: 6.09; pIC50 [1, 40]: 5.38; pIC50 [1, 41]: 5.89; pIC50 ([1]; MeWo, read-out: cell panel IC50, MeWo): 5.25; pIC50 [1, 42]: 5.46; pIC50 [1, 43]: 5.43; pIC50 [1, 44]: 5.52; pIC50 [1, 45]: 5.49; pIC50 [1, 46]: 4.94; pIC50 [1, 47]: 6.03; pIC50 [1, 48]: 4.93; pIC50 [1, 49]: 4.98; pIC50 [1, 50]: 4.98; pIC50 [1, 51]: 5.58; pIC50 [1, 52]: 5.16; %-inhibition of HGK [8]: 100%; %-inhibition of PDGFRβ [2]: 95%; %-inhibition of PKR [4]: -13%; %-inhibition of PKACγ [5]: 53%; %-inhibition, CDK5/p25 [6]: -25%; %-inhibition of DDR2 [7]: 96%; %-inhibition, ALK(R1275Q) [9]: 61%
